Laboratory results as given in patent US9758559B2, “Short peptides derived from VDAC1, compositions and methods of use thereof” (B.G. NEGEV TECHNOLOGIES AND APPLICATIONS LTD., AT …, priority 2013, dated 2017).
Where no end group is shown, it is not given here.

Legend:
MEC-1 cells = assay type: cell-based; details: for cell-death induction activity, in words: compared with N-Ter-Antp
Protocol: (§1) MEC-1, MO1043 and T-Rex-293 cells were grown in DMEM supplemented with 10% FCS, 2 mM L-glutamine, 1000 U/ml penicillin and 1 mg/ml streptomycin, U-87, C6 and PC3 were maintained in RPMI 1640 supplemented with 10-20% FCS, 2 mM L-glutamine, 1000 U/ml penicillin and 1 mg/ml streptomycin. All cells were maintained in a humidified atmosphere with 5% CO2 at 37° C.
(§2) PBMCs (4×10^5 or 8×10^5 cells/sample) were incubated in 200 μl serum-free medium with the examined peptide for 90 min at room temperature and centrifuged (500×g, 5 min) Cell death was analyzed by PI staining and flow cytometer (Beckton-Dickinson) and BD Cell Quest Pro software. Apoptotic cell death was also analyzed by PI and annexin V-FITC staining (Zaid H et al. 2005. 12:751-760), and by acridine orange and ethidium bromide staining and confocal microscopy (Olympus 1×81).
To optimize the VDAC1 N-terminal derived peptides with respect to stability, length and specific targeting to cancer cells, several versions of these peptides were designed and tested for their efficacy in inducing the death of CLL-derived lymphocytes and MEC-1 cells (Table 3). Cells were incubated for 90 min with increasing concentrations of the indicated peptide and death was analyzed by PI stating and FACS as described hereinabove. As is clearly shown in FIG. 1 (and Table 3), deleting 6 residues from the C-terminus of the peptide, including the GXXXG motif, yielded a non-active peptide (peptide Δ(21-26) N-Ter-Antp, SEQ ID NO:22).

CLL-derived lymphocytes = test: Cell death of CLL-derived lymphocytes (PBMCs of CLL patients), PI staining and FACS; assay type: cell-based, human; details: 90 min incubation, PI staining, FACS, read-out: IC50, induction of cell death, CLL
Protocol: PBMCs were isolated from venous blood of the CLL patients by Ficoll-Paque PLUS (GE Healthcare, Israel) density gradient centrifugation, as follows. Venous blood (10-20 ml) was drawn from CLL patients with satisfying diagnostic criteria for CLL or from normal adult donors. Blood was collected into heparin tubes and was diluted 1:1 with balance solution composed of two stock solutions, A (1% D-glucose, 50 mM CaCl2, 0.98 mM MgCl2, 5.4 mM KCl and 0.145 M Tris-HCl, pH 7.6) and B (0.14 M NaCl) in a 1:9 ratio. The resulting mix was carefully layered on Ficoll-Paque Plus (10 ml of diluted blood:15 ml Ficoll) in 50 ml conical tubes. The tubes were centrifuged at 400×g (with minimal acceleration and deceleration) and 18-20° C. for 40 min. […] Cells were counted by a Countess Automated Cell Counter (Invitrogen).
PBMCs (4×10^5 or 8×10^5 cells/sample) were incubated in 200 μl serum-free medium with the examined peptide for 90 min at room temperature and centrifuged (500×g, 5 min) Cell death was analyzed by PI staining and flow cytometer (Beckton-Dickinson) and BD Cell Quest Pro software. Apoptotic cell death was also analyzed by PI and annexin V-FITC staining (Zaid H et al. 2005. 12:751-760), and by acridine orange and ethidium bromide staining and confocal microscopy (Olympus 1×81). […]

MO1043 cells = test: Cell death of MO1043 cells, PI staining and FACS; assay type: cell-based, human; details: compared with N-Ter-Antp
Protocol: as §1, §2
To optimize the VDAC1 N-terminal derived peptides with respect to stability, length and specific targeting to cancer cells, several versions of these peptides were designed and tested for their efficacy in inducing the death of CLL-derived lymphocytes and MEC-1 cells (Table 3). Cells were incubated for 90 min with increasing concentrations of the indicated peptide and death was analyzed by PI stating and FACS as described hereinabove. […]

| Sequence | cell-death induction activity, in words (MEC-1 cells) | also measured |
| --- | --- | --- |
| GKSARDVFTKGYGFGLRQIKIWFQNRRMKWKK [Δ(1-10) N-Ter-Antp, GKSARDVFTKGYGFGL RQIKIWFQNRRMKWKK] | did not significantly modified the cell-death induction activity | – |
| MAVPPTYADLGKSARDVFTKGYGFGLRQIKIWFQNRRMKWKK [N-Ter-Antp, reference compound] | – | IC50 (CLL-derived lymphocytes): 3.2 ± 0.5 µM; IC50 (MEC-1 cells; 90 min incubation, serum-free medium, PI staining, FACS, read-out: IC50, induction of cell death, MEC-1): 4.2 ± 0.2 µM |
| MAVPPTYADLGKSARDVFTKRQIKIWFQNRRMKWKK [Δ(21-26) N-Ter-Antp] | non-active | – |
| PTYADLGKSARDVFTKGYGFGLRQIKIWFQNRRMKWKK [Δ(1-4) N-Ter-Antp] | did not significantly modified the cell-death induction activity | – |
| RDVFTKGYGFGLRQIKIWFQNRRMKWKK [Δ(1-14) N-Ter-Antp, RDVFTKGYGFGL RQIKIWFQNRRMKWKK] | more active | – |
| TKGYGFGL RQIKIWFQNRRMKWKK (TKGYGFGLRQIKIWFQNRRMKWKK) [Δ(1-18) N-Ter-Antp] | – | cell-death induction activity, in words (MO1043 cells): more active |
